US4364958A, “1-Substituted-3-cycloalkyl-sulfonyl-pyrrolidine-2,5-dione derivatives and fungicidal compositions thereof” (Chinoin Gyogyszer es Vegyeszeti Termekek Gyara Rt., priority 1979, dated 1982)
Values after ≈ are worked out from the molar mass of the structure shown. Like-named read-outs stand apart in the source and are kept apart here.

What was measured:
Assay in all cases: minimal inhibitory concentration in Sabouraud medium
Format in all cases: cell-based
[1] = test system: Epidermophyton floccosum OKI/IV.; details: Epidermophyton floccosum
Description: Epidermophyton floccosum OKI/IV.
(§1) As a medium Saboroud medium was employed.

[2] = test system: Trichophyton rubrum CBS.30338; details: Trichophyton rubrum
Description: Trichophyton rubrum CBS.30338
as §1

[3] = test system: Penicillium digitatum CBS.31948; details: Penicillium digitatum
Description: Penicillium digitatum CBS.31948
as §1

[4] = test system: Saccharomyces cerevisiae OKI.1282; details: Saccharomyces cerevisiae
Description: Saccharomyces cerevisiae OKI.1282
as §1

[5] = test system: Sporotrichum schenkii CBS.34035; details: Sporotrichum
Description: Sporotrichum schenkii CBS.34035
as §1

[6] = test system: Aspergillus niger CBS.12648; details: Aspergillus niger
Description: Aspergillus niger CBS.12648
as §1

Candida albicans CBS.562 = details: Candida albicans
Description: Candida albicans CBS.562 "2"
as §1

[7] = test system: Trichophyton mentagrophytes CBS.50148; details: Trichophyton mentagrophytes
Description: Trichophyton mentagrophytes CBS.50148
as §1

[8] = 72 h, read-out: minimal inhibitory concentration
[9] = 144 h, read-out: minimal inhibitory concentration
[10] = 288 h, read-out: minimal inhibitory concentration
[11] = CBS.50148, 72 h, 72 hours, read-out: minimal inhibitory concentration
[12] = CBS.50148, 144 h, 144 hours, read-out: minimal inhibitory concentration
[13] = CBS.50148, 288 h, 288 hours, read-out: minimal inhibitory concentration
[14] = read-out: Minimal inhibitory concentration inhibiting the growth
[15] = CBS.50148, read-out: Minimal inhibitory concentration inhibiting the growth

MIC [1, 8] | MIC [1, 9] | MIC [1, 10] | MIC ([2]; CBS.30338, 72 h, 72 hours) | MIC ([2]; CBS.30338, 144 h, 144 hours) | MIC ([2]; CBS.30338, 288 h, 288 hours) | MIC ([3]; CBS.31948, 72 h, 72 hours) | MIC ([3]; CBS.31948, 144 h, 144 hours) | MIC ([3]; CBS.31948, 288 h, 288 hours) | MIC ([4]; OKI.1282, 24 h, 24 hours) | MIC ([4]; OKI.1282, 48 h, 48 hours) | MIC ([5]; CBS.34035, 72 h, 72 hours) | MIC ([5]; CBS.34035, 144 h, 144 hours) | MIC ([5]; CBS.34035, 288 h, 288 hours) | MIC ([6]; CBS.12648, 72 h, 72 hours) | MIC ([6]; CBS.12648, 144 h, 144 hours) | MIC ([6]; CBS.12648, 288 h, 288 hours) | MIC [7, 11] | MIC [7, 12] | MIC [7, 13] | SMILES | further results
75 µg/mL (≈ 205 µM) | 100 µg/mL (≈ 273 µM) | 150 µg/mL (≈ 409 µM) | 50 µg/mL (≈ 136 µM) | 50 µg/mL (≈ 136 µM) | 75 µg/mL (≈ 205 µM) | 25 µg/mL (≈ 68.2 µM) | 50 µg/mL (≈ 136 µM) | 50 µg/mL (≈ 136 µM) | 100 µg/mL (≈ 273 µM) | 200 µg/mL (≈ 546 µM) | 10 µg/mL (≈ 27.3 µM) | 50 µg/mL (≈ 136 µM) | 50 µg/mL (≈ 136 µM) | 150 µg/mL (≈ 409 µM) | 200 µg/mL (≈ 546 µM) | 200 µg/mL (≈ 546 µM) | 75 µg/mL (≈ 205 µM) | 150 µg/mL (≈ 409 µM) | 150 µg/mL (≈ 409 µM) | O=C1CC(S(=O)(=O)C2CCCCC2)C(=O)N1c1ccccc1[N+](=O)[O-] (centres unmarked) [1-(o-nitrophenyl)-3-cyclohexyl-sulfonyl-pyrrolidine-2,5-dione] | MIC (Candida albicans CBS.562; CBS.562, 24 h, 24 hours): 75 µg/mL (≈ 205 µM); MIC (Candida albicans CBS.562; CBS.562, 48 h, 48 hours): 150 µg/mL (≈ 409 µM)
5 µg/mL (≈ 14.9 µM) | 10 µg/mL (≈ 29.8 µM) | 10 µg/mL (≈ 29.8 µM) | 10 µg/mL (≈ 29.8 µM) | 25 µg/mL (≈ 74.5 µM) | 50 µg/mL (≈ 149 µM) | 10 µg/mL (≈ 29.8 µM) | 50 µg/mL (≈ 149 µM) | 50 µg/mL (≈ 149 µM) | 25 µg/mL (≈ 74.5 µM) | 25 µg/mL (≈ 74.5 µM) | 10 µg/mL (≈ 29.8 µM) | 25 µg/mL (≈ 74.5 µM) | 50 µg/mL (≈ 149 µM) | 100 µg/mL (≈ 298 µM) | 150 µg/mL (≈ 447 µM) | 150 µg/mL (≈ 447 µM) | 10 µg/mL (≈ 29.8 µM) | 25 µg/mL (≈ 74.5 µM) | 25 µg/mL (≈ 74.5 µM) | Cc1ccccc1N1C(=O)CC(S(=O)(=O)C2CCCCC2)C1=O (centres unmarked) [1-(o-tolyl)-3-cyclohexyl-sulfonyl-pyrrolidine-2,5-dione] | MIC (Candida albicans CBS.562; CBS.562, 24 h, 24 hours): 75 µg/mL (≈ 224 µM); MIC (Candida albicans CBS.562; CBS.562, 48 h, 48 hours): 100 µg/mL (≈ 298 µM)
100 µg/mL (≈ 273 µM) | 150 µg/mL (≈ 409 µM) | 150 µg/mL (≈ 409 µM) | 75 µg/mL (≈ 205 µM) | 75 µg/mL (≈ 205 µM) | 150 µg/mL (≈ 409 µM) | 100 µg/mL (≈ 273 µM) | 150 µg/mL (≈ 409 µM) | 150 µg/mL (≈ 409 µM) | 25 µg/mL (≈ 68.2 µM) | 50 µg/mL (≈ 136 µM) | 25 µg/mL (≈ 68.2 µM) | 25 µg/mL (≈ 68.2 µM) | 25 µg/mL (≈ 68.2 µM) | 75 µg/mL (≈ 205 µM) | 150 µg/mL (≈ 409 µM) | 150 µg/mL (≈ 409 µM) | 75 µg/mL (≈ 205 µM) | 100 µg/mL (≈ 273 µM) | 100 µg/mL (≈ 273 µM) | O=C1CC(S(=O)(=O)C2CCCCC2)C(=O)N1c1ccc([N+](=O)[O-])cc1 (centres unmarked) [1-(p-nitrophenyl)-3-cyclohexylsulfonyl-pyrrolidine-2,5-dione] | MIC (Candida albicans CBS.562; CBS.562, 24 h, 24 hours): 75 µg/mL (≈ 205 µM); MIC (Candida albicans CBS.562; CBS.562, 48 h, 48 hours): 150 µg/mL (≈ 409 µM)
5 µg/mL (≈ 14.9 µM) | 10 µg/mL (≈ 29.8 µM) | 25 µg/mL (≈ 74.5 µM) | 5 µg/mL (≈ 14.9 µM) | 10 µg/mL (≈ 29.8 µM) | 25 µg/mL (≈ 74.5 µM) | 10 µg/mL (≈ 29.8 µM) | 25 µg/mL (≈ 74.5 µM) | 25 µg/mL (≈ 74.5 µM) | 25 µg/mL (≈ 74.5 µM) | 25 µg/mL (≈ 74.5 µM) | 10 µg/mL (≈ 29.8 µM) | 25 µg/mL (≈ 74.5 µM) | 50 µg/mL (≈ 149 µM) | 75 µg/mL (≈ 224 µM) | 100 µg/mL (≈ 298 µM) | 150 µg/mL (≈ 447 µM) | 5 µg/mL (≈ 14.9 µM) | 25 µg/mL (≈ 74.5 µM) | 50 µg/mL (≈ 149 µM) | Cc1cccc(N2C(=O)CC(S(=O)(=O)C3CCCCC3)C2=O)c1 (centres unmarked) [1-m(tolyl)-3-cyclohexyl-sulfonyl-pyrrolidine-2,5-dione] | MIC (Candida albicans CBS.562; CBS.562, 24 h, 24 hours): 50 µg/mL (≈ 149 µM); MIC (Candida albicans CBS.562; CBS.562, 48 h, 48 hours): 100 µg/mL (≈ 298 µM)
25 µg/mL (≈ 102 µM) | 25 µg/mL (≈ 102 µM) | 25 µg/mL (≈ 102 µM) | 50 µg/mL (≈ 204 µM) | 75 µg/mL (≈ 306 µM) | 75 µg/mL (≈ 306 µM) | 50 µg/mL (≈ 204 µM) | 50 µg/mL (≈ 204 µM) | 50 µg/mL (≈ 204 µM) |  |  | 150 µg/mL (≈ 611 µM) | 150 µg/mL (≈ 611 µM) | 150 µg/mL (≈ 611 µM) |  |  |  | 50 µg/mL (≈ 204 µM) | 50 µg/mL (≈ 204 µM) | 75 µg/mL (≈ 306 µM) | O=C1CC(S(=O)(=O)C2CCCCC2)C(=O)N1 (centres unmarked) [3-Cyclohexyl-sulfonyl-pyrrolidine-2,5-dione] | MIC [1, 14]: 25 µg/mL (≈ 102 µM); MIC [7, 15]: 50 µg/mL (≈ 204 µM)

SMILES | MIC [1, 8] | MIC [1, 9] | MIC [1, 10] | MIC ([2]; CBS.30338, 72 h, 72 hours) | MIC ([2]; CBS.30338, 144 h, 144 hours) | MIC ([2]; CBS.30338, 288 h, 288 hours) | MIC ([3]; CBS.31948, 72 h, 72 hours) | MIC ([3]; CBS.31948, 144 h, 144 hours) | MIC ([3]; CBS.31948, 288 h, 288 hours) | MIC ([4]; OKI.1282, 24 h, 24 hours) | MIC ([4]; OKI.1282, 48 h, 48 hours) | MIC ([5]; CBS.34035, 72 h, 72 hours) | MIC ([5]; CBS.34035, 144 h, 144 hours) | MIC ([5]; CBS.34035, 288 h, 288 hours) | MIC ([6]; CBS.12648, 72 h, 72 hours) | MIC ([6]; CBS.12648, 144 h, 144 hours) | MIC ([6]; CBS.12648, 288 h, 288 hours) | MIC [7, 11] | MIC [7, 12] | MIC [7, 13] | further results
COC(=O)c1ccc(N2C(=O)CC(S(=O)(=O)C3CCCCC3)C2=O)cc1OC(C)=O (centres unmarked) [Example 7, 1-(3-Acetoxy-4-methoxycarbonyl-phenyl)-3-cyclohexyl-sulfonyl-pyrrolidine-2,5-dione] | 10 µg/mL (≈ 22.9 µM) | 10 µg/mL (≈ 22.9 µM) | 10 µg/mL (≈ 22.9 µM) | 25 µg/mL (≈ 57.1 µM) | 25 µg/mL (≈ 57.1 µM) | 50 µg/mL (≈ 114 µM) | 50 µg/mL (≈ 114 µM) | 50 µg/mL (≈ 114 µM) | 100 µg/mL (≈ 229 µM) |  |  | 50 µg/mL (≈ 114 µM) | 100 µg/mL (≈ 229 µM) | 150 µg/mL (≈ 343 µM) | 200 µg/mL (≈ 457 µM) | 200 µg/mL (≈ 457 µM) | 200 µg/mL (≈ 457 µM) | 2.5 µg/mL (≈ 5.71 µM) | 2.5 µg/mL (≈ 5.71 µM) | 2.5 µg/mL (≈ 5.71 µM) | MIC [1, 14]: 10 µg/mL (≈ 22.9 µM); MIC [7, 15]: 2.5 µg/mL (≈ 5.71 µM)
